# According to publication PMC8391922, “The Combined Effect of Branching and Elongation on the Bioactivity Profile of Phytocannabinoids. Part I: Thermo-TRPs” (Biomedicines, 2021):
# Where two headings read alike, the source gives them in different places.
# Key:
# Assay type in all cases: cell-based
# rat TRPA1 = target: T1, rat TRPA1 (Rattus norvegicus, UniProt Q6RI86); assay: TRPA1-mediated elevation of intracellular Ca2+ (Fluo-4) in transfected HEK-293 cells; conditions: for TRPA1 Efficacy (%ITC 100 μM): percentage of the effect of 100 μM allylisothiocyanate on [Ca2+]i
# T1 construct: expressed in transfected cells; host or cells: HEK-293
# Experimental: (§1) Assays of rat TRPA1, TRPV2, TRPV3, TRPV4, and TRPM8 or human TRPV1 mediated elevation of intracellular Ca ^2+ in transfected HEK-293 cells were performed with a continuous monitoring of [Ca ^2+]i during the experiments. […] Cell fluorescence before and after the addition of various concentrations of test compounds was measured, normalizing the effects against the response to ionomycin (IM, 4 μM). The values of the effect on [Ca^2+]i in HEK-293 cells not transfected were used as baseline and subtracted from the values obtained from transfected cells. For TRPA1, agonist efficacy was expressed as a percentage of the effect on [Ca ^2+]i observed with 100 μM allylisothiocyanate. […] In the TRPV3 assay, TRPV3-expressing HEK293 cells were first sensitized with the structurally unrelated agonist 2-aminoethoxydiphenyl borate (100 μM). Antagonist/desensitizing behavior is evaluated against the agonist of the TRP analyzed by adding the compounds directly in the quartz cuvette 5 min before stimulation of cells with the agonist. […] Dose-response curve fitting (sigmoidal dose-response variable slope) and parameter estimation were performed with Graph-Pad Prism8 (GraphPad Software Inc., San Diego, CA, USA). All determinations were performed at least in triplicate.
# human TRPV1 = target: T2, human TRPV1 (Homo sapiens, UniProt Q8NER1); assay: TRPV1-mediated elevation of intracellular Ca2+ (Fluo-4) in transfected HEK-293 cells; conditions: for TRPV1 Efficacy (% IM 4 μM): percentage of the response to ionomycin 4 μM, HEK-293
# T2 construct: expressed in transfected cells; host or cells: HEK-293
# Experimental: as §1
# rat TRPM8 = target: T3, rat TRPM8 (Rattus norvegicus, UniProt Q8R455); assay: TRPM8 antagonism of icilin-induced intracellular Ca2+ elevation (Fluo-4) in transfected HEK-293 cells; conditions: compound added 5 min before agonist icilin 0.25 μM
# T3 construct: expressed in transfected cells; host or cells: HEK-293
# Experimental: as §1
# rat TRPV2 = target: T4, rat TRPV2 (Rattus norvegicus, UniProt Q9WUD2); assay: TRPV2-mediated elevation of intracellular Ca2+ (Fluo-4) in transfected HEK-293 cells; conditions: for IC50: compound added 5 min before agonist CBD 2 μM; for TRPV2 Efficacy (% IM 4 μM): percentage of the response to ionomycin 4 μM, HEK-293
# T4 construct: expressed in transfected cells; host or cells: HEK-293
# T4 sequence (Q9WUD2 1-761): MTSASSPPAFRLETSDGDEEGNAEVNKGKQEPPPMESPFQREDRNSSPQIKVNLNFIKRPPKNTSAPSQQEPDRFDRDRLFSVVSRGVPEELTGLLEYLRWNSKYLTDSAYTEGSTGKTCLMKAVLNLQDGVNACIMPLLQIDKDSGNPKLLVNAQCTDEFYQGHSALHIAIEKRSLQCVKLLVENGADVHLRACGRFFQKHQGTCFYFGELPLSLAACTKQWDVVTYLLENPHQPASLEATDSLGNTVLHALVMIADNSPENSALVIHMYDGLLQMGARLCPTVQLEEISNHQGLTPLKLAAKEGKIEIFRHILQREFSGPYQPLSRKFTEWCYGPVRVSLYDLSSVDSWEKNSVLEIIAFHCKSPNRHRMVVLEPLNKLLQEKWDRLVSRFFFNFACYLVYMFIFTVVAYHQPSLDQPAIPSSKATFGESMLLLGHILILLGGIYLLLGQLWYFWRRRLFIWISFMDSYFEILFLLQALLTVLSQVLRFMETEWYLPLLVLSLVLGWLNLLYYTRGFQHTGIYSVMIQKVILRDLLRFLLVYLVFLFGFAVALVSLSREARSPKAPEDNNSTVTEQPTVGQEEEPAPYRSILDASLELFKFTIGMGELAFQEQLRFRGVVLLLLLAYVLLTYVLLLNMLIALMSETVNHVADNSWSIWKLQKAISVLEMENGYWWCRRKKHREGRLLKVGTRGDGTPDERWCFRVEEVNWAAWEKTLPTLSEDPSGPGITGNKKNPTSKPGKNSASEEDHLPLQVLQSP
# Experimental: as §1
# rat TRPV4 = target: T5, rat TRPV4 (Rattus norvegicus, UniProt Q9ERZ8); assay: TRPV4-mediated elevation of intracellular Ca2+ (Fluo-4) in transfected HEK-293 cells; conditions: for TRPV4 Efficacy (% IM 4 μM): percentage of the response to ionomycin 4 μM
# T5 construct: expressed in transfected cells; host or cells: HEK-293
# Experimental: as §1
# [1] = IC50 TRPV2, antagonist/desensitizing
# [2] = antagonist/desensitizing, compound added 5 min before agonist AITC 100 μM, read-out: IC50 TRPA1
# [3] = half-maximal increase in [Ca2+]i, HEK-293, read-out: TRPA1 Potency EC50
# [4] = antagonist/desensitizing, compound added 5 min before agonist capsaicin 0.1 μM
# [5] = antagonist/desensitizing, compound added 5 min before agonist capsaicin 0.1 μM, read-out: IC50 TRPV1
# [6] = antagonist, read-out: IC50 TRPM8
# [7] = antagonist/desensitizing, read-out: IC50 TRPV2
# [8] = antagonist/desensitizing, compound added 5 min before agonist GSK1016790A 10 nM, read-out: IC50 TRPV4
# T1 sequence (Q6RI86 whole entry): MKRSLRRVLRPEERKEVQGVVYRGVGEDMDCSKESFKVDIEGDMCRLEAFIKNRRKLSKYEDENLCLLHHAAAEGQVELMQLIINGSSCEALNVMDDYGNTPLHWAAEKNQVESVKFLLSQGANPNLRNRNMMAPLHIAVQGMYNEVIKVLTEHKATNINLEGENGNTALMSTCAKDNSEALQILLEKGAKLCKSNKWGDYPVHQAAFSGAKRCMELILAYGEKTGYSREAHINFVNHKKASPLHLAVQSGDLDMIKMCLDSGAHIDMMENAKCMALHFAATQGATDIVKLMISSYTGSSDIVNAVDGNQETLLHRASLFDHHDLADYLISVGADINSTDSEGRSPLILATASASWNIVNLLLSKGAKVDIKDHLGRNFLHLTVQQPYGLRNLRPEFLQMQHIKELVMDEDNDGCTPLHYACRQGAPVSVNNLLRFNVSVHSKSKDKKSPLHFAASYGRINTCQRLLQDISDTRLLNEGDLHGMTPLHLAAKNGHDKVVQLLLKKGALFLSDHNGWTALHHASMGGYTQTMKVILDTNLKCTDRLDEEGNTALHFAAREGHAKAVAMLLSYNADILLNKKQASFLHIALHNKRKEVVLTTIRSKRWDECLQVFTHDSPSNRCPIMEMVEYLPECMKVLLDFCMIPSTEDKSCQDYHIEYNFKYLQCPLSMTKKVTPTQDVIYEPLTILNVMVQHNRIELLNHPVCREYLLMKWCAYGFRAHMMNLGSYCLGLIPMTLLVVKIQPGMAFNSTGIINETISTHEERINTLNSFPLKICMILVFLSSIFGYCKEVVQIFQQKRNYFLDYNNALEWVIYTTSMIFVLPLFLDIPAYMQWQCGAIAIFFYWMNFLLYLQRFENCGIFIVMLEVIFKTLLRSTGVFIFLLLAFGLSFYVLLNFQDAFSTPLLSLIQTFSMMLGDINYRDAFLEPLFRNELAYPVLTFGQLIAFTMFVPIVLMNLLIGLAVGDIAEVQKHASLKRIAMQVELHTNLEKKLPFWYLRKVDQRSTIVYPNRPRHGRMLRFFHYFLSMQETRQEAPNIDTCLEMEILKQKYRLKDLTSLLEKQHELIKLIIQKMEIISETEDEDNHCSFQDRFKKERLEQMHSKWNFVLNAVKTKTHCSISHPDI
# T2 sequence (Q8NER1 whole entry): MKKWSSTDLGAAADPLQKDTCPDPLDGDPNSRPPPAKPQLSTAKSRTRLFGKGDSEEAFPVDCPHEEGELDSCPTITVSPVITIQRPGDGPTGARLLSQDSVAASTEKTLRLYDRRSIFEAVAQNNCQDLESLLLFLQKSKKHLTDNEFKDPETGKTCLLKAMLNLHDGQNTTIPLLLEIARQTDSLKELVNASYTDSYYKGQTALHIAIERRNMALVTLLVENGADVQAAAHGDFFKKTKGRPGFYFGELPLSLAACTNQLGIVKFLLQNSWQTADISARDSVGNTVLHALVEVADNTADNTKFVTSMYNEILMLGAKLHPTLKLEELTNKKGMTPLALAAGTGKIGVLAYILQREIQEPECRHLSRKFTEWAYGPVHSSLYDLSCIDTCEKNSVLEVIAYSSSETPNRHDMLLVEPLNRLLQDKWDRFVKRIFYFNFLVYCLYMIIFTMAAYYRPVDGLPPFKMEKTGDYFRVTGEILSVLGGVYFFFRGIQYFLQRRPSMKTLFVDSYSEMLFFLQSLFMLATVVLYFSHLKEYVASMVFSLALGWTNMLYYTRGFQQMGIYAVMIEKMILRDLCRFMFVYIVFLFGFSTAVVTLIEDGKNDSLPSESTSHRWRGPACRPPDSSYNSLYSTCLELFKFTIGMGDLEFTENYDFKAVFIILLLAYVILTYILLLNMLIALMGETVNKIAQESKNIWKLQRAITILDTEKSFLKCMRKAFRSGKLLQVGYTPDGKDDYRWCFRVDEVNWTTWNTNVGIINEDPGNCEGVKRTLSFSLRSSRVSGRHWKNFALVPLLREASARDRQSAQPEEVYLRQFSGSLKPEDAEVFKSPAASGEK
# T3 sequence (Q8R455 whole entry): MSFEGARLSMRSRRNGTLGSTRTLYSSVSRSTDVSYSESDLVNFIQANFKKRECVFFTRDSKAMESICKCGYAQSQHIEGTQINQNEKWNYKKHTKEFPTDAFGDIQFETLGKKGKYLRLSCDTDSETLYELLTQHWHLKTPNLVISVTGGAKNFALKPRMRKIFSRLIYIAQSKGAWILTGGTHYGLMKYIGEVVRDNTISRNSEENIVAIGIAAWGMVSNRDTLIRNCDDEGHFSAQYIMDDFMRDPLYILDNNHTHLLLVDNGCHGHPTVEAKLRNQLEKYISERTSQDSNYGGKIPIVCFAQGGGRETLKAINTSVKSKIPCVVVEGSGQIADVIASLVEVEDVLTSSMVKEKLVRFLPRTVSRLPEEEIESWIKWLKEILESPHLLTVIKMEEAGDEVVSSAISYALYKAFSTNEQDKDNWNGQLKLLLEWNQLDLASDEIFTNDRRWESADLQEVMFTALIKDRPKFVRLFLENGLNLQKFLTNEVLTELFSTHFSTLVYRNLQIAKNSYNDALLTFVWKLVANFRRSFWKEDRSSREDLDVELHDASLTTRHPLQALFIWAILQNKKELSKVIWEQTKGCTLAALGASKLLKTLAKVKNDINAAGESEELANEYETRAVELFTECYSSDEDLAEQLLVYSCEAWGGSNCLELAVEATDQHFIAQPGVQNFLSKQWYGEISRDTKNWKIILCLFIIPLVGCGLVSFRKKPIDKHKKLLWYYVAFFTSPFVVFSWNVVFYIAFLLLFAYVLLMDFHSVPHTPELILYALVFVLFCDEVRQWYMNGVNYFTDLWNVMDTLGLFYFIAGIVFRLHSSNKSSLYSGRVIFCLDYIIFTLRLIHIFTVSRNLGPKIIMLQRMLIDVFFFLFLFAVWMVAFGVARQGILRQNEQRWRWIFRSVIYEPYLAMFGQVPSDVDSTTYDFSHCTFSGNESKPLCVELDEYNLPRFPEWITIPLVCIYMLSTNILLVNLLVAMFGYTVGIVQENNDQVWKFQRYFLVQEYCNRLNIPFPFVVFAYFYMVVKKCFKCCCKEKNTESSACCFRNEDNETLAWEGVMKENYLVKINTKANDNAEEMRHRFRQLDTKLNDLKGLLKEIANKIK
# T5 sequence (Q9ERZ8 whole entry): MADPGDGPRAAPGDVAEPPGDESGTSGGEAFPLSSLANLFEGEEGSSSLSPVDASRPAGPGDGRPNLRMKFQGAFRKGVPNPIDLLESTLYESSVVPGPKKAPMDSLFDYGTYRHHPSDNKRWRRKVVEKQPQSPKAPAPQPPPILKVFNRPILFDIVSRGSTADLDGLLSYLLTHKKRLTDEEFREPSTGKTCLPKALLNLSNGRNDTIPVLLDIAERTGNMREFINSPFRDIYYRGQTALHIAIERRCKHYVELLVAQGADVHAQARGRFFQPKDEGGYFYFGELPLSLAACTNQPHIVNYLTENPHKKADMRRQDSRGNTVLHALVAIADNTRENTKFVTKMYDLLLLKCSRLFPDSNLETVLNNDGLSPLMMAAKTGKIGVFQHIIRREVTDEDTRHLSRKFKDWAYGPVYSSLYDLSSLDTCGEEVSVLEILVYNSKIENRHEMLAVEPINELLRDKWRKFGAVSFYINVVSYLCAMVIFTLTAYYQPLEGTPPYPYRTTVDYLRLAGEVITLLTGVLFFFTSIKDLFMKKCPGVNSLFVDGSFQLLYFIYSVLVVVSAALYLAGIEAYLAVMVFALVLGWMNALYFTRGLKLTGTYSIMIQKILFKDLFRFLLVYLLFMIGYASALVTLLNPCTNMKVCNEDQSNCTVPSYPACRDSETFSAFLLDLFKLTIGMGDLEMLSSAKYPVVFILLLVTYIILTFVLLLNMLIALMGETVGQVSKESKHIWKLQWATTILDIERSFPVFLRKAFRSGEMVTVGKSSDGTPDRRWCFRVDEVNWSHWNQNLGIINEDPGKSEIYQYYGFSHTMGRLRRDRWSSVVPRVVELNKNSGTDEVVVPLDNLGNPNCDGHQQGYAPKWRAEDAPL
SMILES,TRPA1 Efficacy (%ITC 100 μM) (rat TRPA1; HEK-293),IC50 (human TRPV1),TRPV1 Efficacy (% IM 4 μM) (human TRPV1),"IC50 (rat TRPM8; IC50 TRPM8, antagonist)",EC50 (rat TRPV2),IC50 (rat TRPV2; [1]),TRPV2 Efficacy (% IM 4 μM) (rat TRPV2),TRPV4 Efficacy (% IM 4 μM) (rat TRPV4; HEK-293),IC50 (rat TRPA1; [2]),EC50 (rat TRPA1; [3]),IC50 TRPV1 (human TRPV1; [4]),IC50 (human TRPV1; [5]),IC50 (rat TRPM8; [6]),IC50 (rat TRPV2; [7]),IC50 (rat TRPV4; [8]),further results
"CCCCCCC(C)(C)c1cc(O)c2c(c1)OC(C)(CCC=C(C)C)C=C2 (stereo not drawn) [8b, Depentyl-α,α-dimethylheptyl-cannabichromene]",120.4 ± 2.8%,> 100 µM,18.9 ± 0.2%,> 100 µM,> 50 µM,22.6 ± 0.2 µM,76.1 ± 0.6%,< 10%,,,,,,,,EC50 (rat TRPA1): 0.76 ± 0.12 µM; IC50 (rat TRPA1): 0.32 ± 0.01 µM; EC50 (human TRPV1): 12.8 ± 0.9 µM; IC50 TRPM8 (rat TRPM8; antagonist): totally inactive; IC50 (rat TRPV4): > 100 µM
"C=C(C)[C@@H]1CCC(C)=C[C@H]1c1c(O)cc(C(C)(C)CCCCCC)cc1O [1b, Depentyl-α,α-dimethylheptyl-cannabidiol]",133.4 ± 5.3%,,< 10%,,,,< 10%,34.0 ± 1.3%,0.51 ± 0.03 µM,0.4 ± 0.15 µM,inactive,> 100 µM,13.4 ± 2.1 µM,16.8 ± 0.2 µM,> 100 µM,
"CCCCCCC(C)(C)c1cc(O)c(C/C=C(\C)CCC=C(C)C)c(O)c1 [7b, Depentyl-α,α-dimethylheptyl-cannabigerol]",99.2 ± 4.5%,> 100 µM,< 10%,9.2 ± 0.8 µM,9.8 ± 0.6 µM,39.4 ± 4.5 µM,65.3 ± 0.7%,34.4 ± 5.2%,1.7 ± 0.15 µM,9.1 ± 2 µM,inactive,,,,35.4 ± 3.2 µM,"EC50 (rat TRPV4; half-maximal increase in [Ca2+]i, HEK-293, read-out: TRPV4 Potency EC50): 39 ± 21.6 µM"
"CCCCC(C)(C)c1cc(O)c2c(c1)OC(C)(CCC=C(C)C)C=C2 (stereo not drawn) [8d, Depentyl-5-α,α-dimethylpentylcannabichromene]",98.7 ± 1.9%,,<10%,,,,<10%,<10%,0.4 ± 0.01 µM,0.15 ± 0.03 µM,,> 100 µM,23.6 ± 7.4 µM,13.3 ± 1.1 µM,> 100 µM,
"CCCCCCCc1cc(O)c2c(c1)OC(C)(CCC=C(C)C)C=C2 (stereo not drawn) [8c, Depentyl-5-n-heptylcannabichromene]",97.8 ± 3.3%,,<10%,,,,<10%,<10%,3.8 ± 0.35 µM,1.2 ± 0.2 µM,,> 100 µM,> 100 µM,9 ± 0.8 µM,> 100 µM,
